Experimental data from ChEMBL document CHEMBL3137667, “[Drug-induced liver injury; fourteenth updated edition of the bibliographic database of liver injuries and related drugs]” (Gastroenterol Clin Biol, 2004).

Assays:
[1] = human
[2] = human, serum, 4383 h
[3] = human; remark: listed apart in the source
[4] = human; remark: listed apart in the source
[5] = human; remark: listed apart in the source
[6] = human; remark: listed apart in the source
[7] = human; remark: listed apart in the source
[8] = human; remark: listed apart in the source
[9] = Times to onset, minimal and maximal, observed in the indexed observations. [column 'DELAI' in source]; conditions: human
[10] = human; remark: listed apart in the source
[11] = human; remark: listed apart in the source
[12] = human, serum
[13] = Highest frequency of acute liver toxicity observed during clinical trials, expressed as a percentage. [column '% AIGUE' in source]; conditions: human
[14] = Highest frequency of moderate liver toxicity observed during clinical trials, expressed as a percentage. [column '% BIOL' in source]; conditions: human
[15] = human, serum; remark: listed apart in the source
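For Hepatotoxicity (association with vascular disease) in this document: count of indexed literature references reporting vascular liver injury in humans, e.g. peliosis hepatitis, hepatic veno-occlusive disease or Budd-Chiari syndrome.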
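For Hepatotoxicity (benign tumour) in this document: value is a count of indexed literature references citing a benign tumour confirmed by histopathology.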
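For Hepatotoxicity (choleostasis) in this document: human cholestatic liver injury, shown by histopathology or by peak ALT or AST elevation over alkaline phosphatase ratio below 2, value counts indexed literature reports.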
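For Hepatotoxicity (chronic liver disease) in this document: chronic liver injury confirmed by histopathology or persistently raised serum aminotransferase activity beyond 6 months, value given as the count of indexed literature references.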
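For Hepatotoxicity (cirrhosis) in this document: value is a count of indexed literature references reporting cirrhosis confirmed by histopathology.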
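For Hepatotoxicity (cytolytic) in this document: human cytolytic liver injury, shown by histopathology or by a ratio above 5 of peak ALT or AST elevation to alkaline phosphatase elevation, value counts indexed references.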
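For Hepatotoxicity (granulomatous hepatitis) in this document: value is a count of indexed literature references reporting granulomatous liver disease confirmed by histopathology.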
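For Hepatotoxicity (malignant tumour) in this document: malignant tumour confirmed by histopathology, value gives the count of indexed literature references reporting it.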
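For Hepatotoxicity (severe hepatitis) in this document: human clinical data: severe hepatitis, meaning potentially life-threatening liver failure or clinically observed cases, the value counts how many indexed literature references report it.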
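For Hepatotoxicity (steatosis) in this document: steatosis confirmed by histopathology, value is the count of indexed references.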

Row | Molecule | Hepatotoxicity (association with vascular disease) [1] | Hepatotoxicity (chronic liver disease) [2] | Hepatotoxicity (choleostasis) [3] | Hepatotoxicity (cirrhosis) [4] | Hepatotoxicity (malignant tumour) [5] | Hepatotoxicity (steatosis) [6] | Hepatotoxicity (cytolytic) [7] | Hepatotoxicity (benign tumour) [8] | Hepatotoxicity (granulomatous hepatitis) [10] | Hepatotoxicity (severe hepatitis) [11] | Hepatotoxicity (acute) [12] | Hepatotoxicity (acute) [13] [%] | Hepatotoxicity (moderate) [14] [%] | Hepatotoxicity (moderate) [15] | other results
1 | COCc1c(C(C)C)nc(C(C)C)c(/C=C/[C@@H](O)C[C@@H](O)CC(=O)O)c1-c1ccc(F)cc1 [CERIVASTATIN] | 0 | 0 | 1 | 0 | 0 | 0 | 1 | 0 | 0 |  |  |  |  |  | Hepatotoxicity (time to onset) [9]: 3 weeks
2 | COc1cc2[nH]c(C)c(CCN3CCN(c4ccccc4)CC3)c2cc1OC [OXYPERTINE] | 0 | 0 | 0 | 0 | 0 | 0 | 0 | 0 | 0 | 0 | 0 | 0 | 0 | 1 | 
3 | Nc1nc(-c2ccccc2)c(Br)c(=O)[nH]1 [BROPIRIMINE] | 0 | 0 |  | 0 | 0 | 0 |  | 0 |  |  | 0 |  |  | 1 | Hepatotoxicity (choleostasis) ([3]; Liver): 0; Hepatotoxicity (severe hepatitis) ([11]; Liver): 0; Hepatotoxicity (cytolytic) ([7]; Liver): 0; Hepatotoxicity (acute) ([13]; Liver): 0%; Hepatotoxicity (moderate) ([14]; Liver): 3.1%; Hepatotoxicity (granulomatous hepatitis) ([10]; Liver): 0
4 | [H]/N=C(\N/C(=N/[H])NCCCCCCNC(=N)NC(=N)Nc1ccc(Cl)cc1)Nc1ccc(Cl)cc1 [CHLORHEXIDINE] | 0 | 0 | 0 | 0 | 0 | 0 | 0 | 0 | 0 | 0 | 1 | 0 | 0 | 0 | 
5 | COLISTIN | 0 | 0 | 0 | 0 | 0 | 0 | 0 | 0 | 0 | 0 | 0 | 0 | 0 | 1 | 
6 | CC1CCCC(C)N1CCCC(O)(c1ccccc1)c1ccccn1 (centres undefined) [PIRMENOL] | 0 | 0 | 0 | 0 | 0 | 0 | 0 | 0 | 0 | 0 | 0 | 0 | 5.3 | 1 | 
7 | C#C[C@]1(O)CC[C@H]2[C@@H]3CCC4=CC(=O)CCC4=C3C=C[C@@]21CC [GESTRINONE] | 0 | 0 | 0 | 0 | 0 | 0 | 0 | 0 | 0 | 0 | 0 | 0 | 0.8 | 1 | 
8 | LENTINAN | 0 | 0 | 0 | 0 | 0 | 0 | 0 | 0 | 0 | 0 | 0 | 0 | 2 | 2 | 
9 | CC(/C=C1\SC(=S)N(CC(=O)O)C1=O)=C\c1ccccc1 | 0 | 0 | 0 | 0 | 0 | 0 | 1 | 0 | 0 | 1 | 1 | 0 | 1 | 2 | 
10 | CCC[C@@H]1C[C@@H](C(=O)N[C@@H]([C@H]2O[C@H](SC)[C@H](O)[C@@H](O)[C@H]2O)[C@@H](C)O)N(C)C1 [LINCOMYCIN] | 0 | 0 | 0 | 0 | 0 | 0 | 0 | 0 | 0 | 0 | 0 | 0 | 0 | 2 | 
11 | CCC(C)(C)NCC(O)COc1ccccc1C(=O)CCc1ccccc1 (centres undefined) [DIPRAFENONE] | 0 | 0 | 1 | 0 | 0 | 0 | 0 | 0 | 0 | 0 | 1 | 1.6 | 3.7 | 3 | 
12 | COC1=C(OC)C(=O)C(CCCCCCCCCCO)=C(C)C1=O [IDEBENONE] | 0 | 0 | 0 | 0 | 0 | 0 | 0 | 0 | 0 | 0 | 0 | 0 | 2.3 | 1 | 
